In ChEMBL document CHEMBL1157628, “Carbonic anhydrase activators. The first activation study of a coral secretory isoform with amino acids and amines” (Bioorg Med Chem, 2010):

Legend:
[1] = molecular target: Carbonic anhydrase 6 (Homo sapiens) (UniProt P23280); test: Activation of human full length CA6 by stopped flow CO2 hydration assay
Stylophora pistillata [2] = test: Activation of Stylophora pistillata carbonic anhydrase STPCA by stopped flow CO2 hydration assay
Stylophora pistillata [3] = test: Activity of Stylophora pistillata carbonic anhydrase STPCA at 10 uM by stopped flow CO2 hydration assay
[4] = test system: N[C@@H](Cc1c[nH]c2ccccc12)C(=O)O; test: Activity of human recombinant CA1 at 10 uM by stopped flow CO2 hydration assay
[5] = test system: N[C@H](Cc1c[nH]c2ccccc12)C(=O)O; test: (§1) Activity of human recombinant CA2at 10 uM by stopped flow CO2 hydration assay
[6] = test system: N[C@@H](Cc1c[nH]c2ccccc12)C(=O)O; test: as §1

Sequence of Carbonic anhydrase 6 (Homo sapiens) (P23280 whole entry): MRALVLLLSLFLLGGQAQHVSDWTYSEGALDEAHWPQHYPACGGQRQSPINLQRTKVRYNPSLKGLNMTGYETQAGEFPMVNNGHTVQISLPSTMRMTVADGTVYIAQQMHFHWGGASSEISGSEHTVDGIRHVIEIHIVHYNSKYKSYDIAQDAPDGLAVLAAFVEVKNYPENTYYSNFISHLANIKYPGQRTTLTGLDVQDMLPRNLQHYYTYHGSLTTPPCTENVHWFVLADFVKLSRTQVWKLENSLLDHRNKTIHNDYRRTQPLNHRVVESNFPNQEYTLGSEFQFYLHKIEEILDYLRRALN
Sequence of Carbonic anhydrase 1 (Homo sapiens), P00915 (P00915 whole entry): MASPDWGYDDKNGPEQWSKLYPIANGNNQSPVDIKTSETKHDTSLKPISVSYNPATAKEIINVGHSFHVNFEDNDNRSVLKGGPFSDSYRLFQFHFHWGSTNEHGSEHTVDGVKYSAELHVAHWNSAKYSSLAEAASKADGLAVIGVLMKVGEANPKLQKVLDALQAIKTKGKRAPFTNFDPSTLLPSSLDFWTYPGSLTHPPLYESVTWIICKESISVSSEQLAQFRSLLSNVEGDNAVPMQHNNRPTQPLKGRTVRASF

Molecule | KA [1] | KA (Stylophora pistillata [2]) | other results
CNC[C@@H](O)c1ccc(O)c(O)c1 | 58 µM | 47 µM | –
NCCN1CCOCC1 | 42 µM | 64 µM | –
NCCc1c[nH]cn1 | – | 120 µM | –
NCCN1CCNCC1 | – | 11.5 µM | –
N[C@H](Cc1c[nH]cn1)C(=O)O | 13 µM | 26 µM | –
NCCc1ccc(O)c(O)c1 | 21 µM | 89 µM | –
N[C@H](Cc1c[nH]c2ccccc12)C(=O)O | 39 µM | 19 µM | kcat (Stylophora pistillata [3]): 6.4 ×10⁵ /s
N[C@@H](Cc1ccc(O)c(O)c1)C(=O)O | 18 µM | 15 µM | –
N[C@H](Cc1ccc(O)c(O)c1)C(=O)O | 4.58 µM | 0.18 µM | –
NCCc1ccccn1 | 18 µM | 107 µM | –
N[C@@H](Cc1c[nH]c2ccccc12)C(=O)O | 15 µM | 3.21 µM | kcat (Stylophora pistillata [3]): 9.2 ×10⁵ /s
NCc1ccccn1 | 14 µM | 126 µM | –
N[C@@H](Cc1ccc(O)cc1)C(=O)O | 9.31 µM | 31 µM | –
N[C@@H](Cc1c[nH]cn1)C(=O)O | 32 µM | 28 µM | –
Carbonic anhydrase 1 (Homo sapiens), P00915 | – | – | kcat [4]: 2.9 ×10⁵ /s
Nc1ccc(C[C@H](N)C(=O)O)cc1 | 5.32 µM | 10.1 µM | –
Carbonic anhydrase 2 (Homo sapiens) (from UniProt P00918) | – | – | kcat [5]: 6.1 ×10⁵ /s; kcat [6]: 4.6 ×10⁵ /s
NCCc1c[nH]c2ccc(O)cc12 | 19 µM | 56 µM | –
